Measurements reported in US20230127047A1, “SELECTIVE GIP RECEPTOR AGONISTS COMPRISING A CHELATING MOIETY FOR IMAGING AND THERAPY PURPOSES” (ANTAROS MEDICAL AB, priority 2020, published 2023).
Where a SMILES comes first, the peptide text is derived from it. Where no end group is shown, it is not given here. [ ]: non-standard residue; d: D form. The star is where a group is joined. DO3A(CH2CH2SO2CH2CH2) = O=C(O)CN1CCN(CCS(=O)(=O)CC*)CCN(CC(=O)O)CCN(CC(=O)O)CC1; DOTA = O=C(O)CN1CCN(CC(=O)O)CCN(CC(=O)*)CCN(CC(=O)O)CC1; Aib = CC(C)(N)C(=O)O

Key:
[1] = molecular target: T1, glucagon receptor (hGCGR) (Homo sapiens, UniProt P47871); test: cAMP response (HTRF) in PSC-HEK-293 cells expressing human glucagon receptor; format: cell-based
T1 construct: expressed in transfected cells
Method: (§1) Each vial contained 1.8 ml cells. The vials were slowly frozen to −80° C. in isopropanol, and then transferred in liquid nitrogen for storage.
(§2) Prior to their use, frozen cells were thawed quickly at 37° C. and washed (5 min at 900 rpm) with 20 ml cell buffer (lx HBSS; 20 mM HEPES, with 0.1% BSA).
(§3) For measurement of cAMP generation, 5 μl cells (final 5000 cells/well) and 5 μl of test compound were added to a 384-well plate, followed by incubation for 30 min at room temperature.
(§4) The cAMP generated was determined using a kit from Cisbio Corp. based on HTRF (Homogenous Time Resolved Fluorescence). The cAMP assay was performed according to manufacturer's instructions (Cisbio).
(§5) cAMP content of cells was determined using a kit from Cisbio Corp. (cat. no. 62AM4PEC) based on HTRF (Homogenous Time Resolved Fluorescence). […] Medium was then removed and cells washed with PBS lacking calcium and magnesium, followed by proteinase treatment with accutase (Sigma-Aldrich cat. no. A6964). Detached cells were washed and resuspended in assay buffer (1×HBSS; 20 mM HEPES, 0.1% BSA, 2 mM IBMX) and cellular density determined. They were then diluted to 400000 cells/ml and 25 μl-aliquots dispensed into the wells of 96-well plates. For measurement, 25 μl of test compound in assay buffer was added to the wells, followed by incubation for 30 minutes at room temperature.

[2] = molecular target: human GLP-1 receptor (hGLP-1R) (Homo sapiens, UniProt P43220); test: cAMP response (HTRF) in PSC-HEK-293 cells expressing human GLP-1 receptor; format: cell-based
Method: as §1, §2, §3, §4, §5

[3] = physchem
Method: Depending on the presence of remaining material as judged by visual inspection the compounds were determined to be soluble at the target concentration in the respective buffer system.
Solubility buffer system A) 100 mM Phosphate buffer pH 7.4
Solubility buffer system B) Acetate buffer pH 4.5
Solubility buffer system C) 100 mM Histidine buffer pH 5.5
Solubility buffer system D) 10 mM Glycine pH 2.5
Solubility buffer system E) 10 mM Glycine pH 2.0
Solubility buffer system F) 50 mM TRIS buffer, 30 mM m-cresol, 85 mM sodium chloride, 8 μM polysorbate 20 pH 7.3
Peptide samples were prepared in the respective solubility buffer system and solubility was assessed as described in Methods.

[4] = Chemical stability testing of peptides in solution (UHPLC); format: physicochemical; details: 0.5 mg/mL, pH 7.3 TRIS buffer
Method: For chemical stability testing, the target concentration was 0.5 mg/mL pure compound in a pH 7.3 TRIS buffer (50 mM) containing m-cresol (30 mM), sodium chloride (85 mM) and polysorbate 20 (8 μM). The solution was stored for 7 days at 4° C., or 40° C. After that time, the solution was analysed by UHPLC (Analytical UHPLC Method D).
The “% Purity” after 7 days is defined by the % Relative purity at day 7 in relation to the % Relative purity at t0 following the equation
% Purity=[(% Relative purity t7)×100)]/% Relative purity t0
The % Relative purity at t0 was calculated by dividing the peak area of the peptide at t0 by the sum of all peak areas at t0 following the equation
% Relative purity t0=[(peak area t0)×100]/sum of all peak areas t0
Likewise, the % relative purity t7 was calculated by dividing the peak are of the peptide at t7 by the sum of all peak areas at t7 following the equation
% Relative purity t7=[(peak area t7)×100]/sum of all peak areas t7
Chemical stability of peptidic compounds was assessed as described in Methods.

[5] = molecular target: T2, human GIP receptor (hGIPR) (Homo sapiens, UniProt P48546); test: cAMP response (HTRF) in PSC-HEK-293 cells expressing human GIP receptor; format: cell-based; details: from EC50 values of Table 5
T2 sequence (P48546 22-466): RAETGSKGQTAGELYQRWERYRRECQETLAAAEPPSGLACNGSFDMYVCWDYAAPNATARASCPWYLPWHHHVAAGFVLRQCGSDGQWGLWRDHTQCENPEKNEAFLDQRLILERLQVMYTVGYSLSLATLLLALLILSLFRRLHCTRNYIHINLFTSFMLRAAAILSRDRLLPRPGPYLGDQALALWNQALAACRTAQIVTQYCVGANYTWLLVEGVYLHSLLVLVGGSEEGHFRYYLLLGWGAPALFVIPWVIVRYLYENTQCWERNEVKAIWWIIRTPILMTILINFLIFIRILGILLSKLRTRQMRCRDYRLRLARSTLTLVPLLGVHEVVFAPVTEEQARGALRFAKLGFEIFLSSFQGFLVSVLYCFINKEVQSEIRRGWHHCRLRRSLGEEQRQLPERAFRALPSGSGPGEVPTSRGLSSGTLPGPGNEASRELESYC
Method: as §1, §2, §3, §4, §5

[6] = molecular target: T3, human GIP receptor (human, UniProt P48546 22-466); test: cell-based or functional assay
T3 sequence (looked up): T2 sequence (P48546 22-466)

[7] = molecular target: human GLP-1 receptor (human, UniProt P43220 24-463); test: cell-based or functional assay
[8] = molecular target: human glucagon receptor (human, UniProt P47871 26-477); test: cell-based or functional assay
[9] = molecular target: T3, human GIP receptor; test: [125I]GIP displacement IC50, reference native GIP (SEQ ID NO: 1)
[10] = molecular target: T3, human GIP receptor; test: [125I]GIP displacement, SPA beads with hGIPR HEK-293 membranes
[11] = molecular target: T3, human GIP receptor; test: [125I]GIP displacement IC50, reference GIP(1-30) (SEQ ID NO: 2)

T1 sequence (P47871 26-477): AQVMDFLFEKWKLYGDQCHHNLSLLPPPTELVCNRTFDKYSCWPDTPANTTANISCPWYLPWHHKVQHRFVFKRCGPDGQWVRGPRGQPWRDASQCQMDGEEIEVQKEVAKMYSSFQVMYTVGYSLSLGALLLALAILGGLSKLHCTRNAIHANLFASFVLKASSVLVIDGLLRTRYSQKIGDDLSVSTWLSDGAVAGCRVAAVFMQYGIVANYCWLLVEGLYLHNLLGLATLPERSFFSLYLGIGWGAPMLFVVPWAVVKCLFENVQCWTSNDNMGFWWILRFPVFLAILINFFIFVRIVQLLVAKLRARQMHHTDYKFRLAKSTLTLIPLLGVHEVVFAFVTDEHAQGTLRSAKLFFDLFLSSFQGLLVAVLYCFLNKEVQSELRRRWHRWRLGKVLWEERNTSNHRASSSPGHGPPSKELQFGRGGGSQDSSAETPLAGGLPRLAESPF
Chain of human GLP-1 receptor (hGLP-1R) (P43220 24-463): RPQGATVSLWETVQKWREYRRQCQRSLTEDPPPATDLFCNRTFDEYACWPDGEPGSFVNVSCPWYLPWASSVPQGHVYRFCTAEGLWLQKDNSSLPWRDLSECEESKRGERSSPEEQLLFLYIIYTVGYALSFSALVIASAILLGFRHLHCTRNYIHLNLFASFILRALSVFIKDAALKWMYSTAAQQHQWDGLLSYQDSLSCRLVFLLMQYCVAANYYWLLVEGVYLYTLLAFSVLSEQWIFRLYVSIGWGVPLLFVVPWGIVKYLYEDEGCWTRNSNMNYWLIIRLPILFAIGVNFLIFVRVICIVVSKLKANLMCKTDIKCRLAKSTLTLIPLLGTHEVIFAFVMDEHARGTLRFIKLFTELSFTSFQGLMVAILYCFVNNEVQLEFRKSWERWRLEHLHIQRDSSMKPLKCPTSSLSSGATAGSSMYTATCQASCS
Chain of human glucagon receptor (P47871 26-477): as the sequence (P47871 26-477) above

`CC[C@H](C)[C@H](NC(=O)[C@H](CO)NC(=O)[C@H](Cc1ccc(O)cc1)NC(=O)[C@H](CC(=O)O)NC(=O)[C@H](CO)NC(=O)[C@@H](NC(=O)[C@H](Cc1ccccc1)NC(=O)[C@@H](NC(=O)CNC(=O)[C@H](CCC(=O)O)NC(=O)[C@H](C)NC(=O)[C@@H](N)Cc1ccc(O)cc1)[C@@H](C)O)[C@@H](C)CC)C(=O)N[C@@H](C)C(=O)N[C@@H](CCSC)C(=O)N[C@@H](CC(=O)O)C(=O)N[C@@H](CCCCN)C(=O)N[C@H](C(=O)N[C@@H](Cc1c[nH]cn1)C(=O)N[C@@H](CCC(N)=O)C(=O)N[C@@H](CCC(N)=O)C(=O)N[C@@H](CC(=O)O)C(=O)N[C@@H](Cc1ccccc1)C(=O)N[C@H](C(=O)N[C@@H](CC(N)=O)C(=O)N[C@@H](Cc1c[nH]c2ccccc12)C(=O)N[C@@H](CC(C)C)C(=O)N[C@@H](CC(C)C)C(=O)N[C@@H](C)C(=O)N[C@@H](CCC(N)=O)C(=O)N[C@@H](CCCCN)C(N)=O)C(C)C)[C@@H](C)CC` [SEQ ID NO: 2, YAEGTFISDYSIAMDKIHQQDFVNWLLAQK-NH2] gave an EC50 [1] of over 10 nM and an EC50 [2] of over 10 nM.

Molecule `CC[C@H](C)[C@H](NC(=O)[C@H](CO)NC(=O)[C@H](CC(C)C)NC(=O)[C@H](CC(=O)O)NC(=O)[C@H](CO)NC(=O)[C@@H](NC(=O)[C@H](Cc1ccccc1)NC(=O)[C@@H](NC(=O)CNC(=O)[C@H](CCC(=O)O)NC(=O)C(C)(C)NC(=O)[C@@H](N)Cc1ccc(O)cc1)[C@@H](C)O)[C@@H](C)CC)C(=O)N[C@@H](C)C(=O)N[C@@H](CC(C)C)C(=O)N[C@@H](CC(=O)O)C(=O)N[C@@H](CCCNC(=N)N)C(=O)N[C@H](C(=O)N[C@@H](Cc1c[nH]cn1)C(=O)N[C@@H](CCC(N)=O)C(=O)N[C@@H](CCC(=O)O)C(=O)N[C@@H](CCC(=O)O)C(=O)N[C@@H](Cc1ccccc1)C(=O)N[C@H](C(=O)N[C@@H](CCC(=O)O)C(=O)N[C@@H](Cc1c[nH]c2ccccc12)C(=O)N[C@@H](CC(C)C)C(=O)N[C@@H](CC(C)C)C(=O)N[C@@H](C)C(=O)NCC(=O)NCC(=O)N[C@@H](CCCCNC(=O)CN1CCN(CC(=O)O)CCN(CC(=O)O)CCN(CC(=O)O)CC1)C(N)=O)[C@@H](C)CC)[C@@H](C)CC` [SEQ ID NO: 3, Y-Aib-EGTFISDLSIALDRIHQEEFIEWLLAGGK(DOTA)-NH2] (H-Y[Aib]EGTFISDLSIALDRIHQEEFIEWLLAGGK(DOTA)-NH2; N-terminus assumed) has an EC50 [1] of over 10 nM, a solubility ([3]; 10 mM glycine buffer, pH 2) of at least 0.5 mg/mL and a solubility ([3]; 10 mM glycine buffer, pH 2.5) of at least 0.5 mg/mL. For the same molecule, the solubility ([3]; 100 mM histidine buffer, pH 5.5) was at least 0.5 mg/mL, the solubility ([3]; 100 mM phosphate buffer, pH 7.4) was at least 0.5 mg/mL and the solubility ([3]; acetate buffer, pH 4.5) was under 0.5 mg/mL. The solubility ([3]; pH 7.3) was at least 0.5 mg/mL, the “% Purity after 7 days” value ([4]; 4° C.) was over 97% and the “% Purity after 7 days” value ([4]; 40° C.) was over 97%. For the same molecule, the EC50 [2] was over 10 nM.

In the case of `CC[C@H](C)[C@H](NC(=O)[C@H](CO)NC(=O)[C@H](CC(C)C)NC(=O)[C@H](CC(=O)O)NC(=O)[C@H](CO)NC(=O)[C@@H](NC(=O)[C@H](Cc1ccccc1)NC(=O)[C@@H](NC(=O)CNC(=O)[C@H](CCC(=O)O)NC(=O)C(C)(C)NC(=O)[C@@H](N)Cc1ccc(O)cc1)[C@@H](C)O)[C@@H](C)CC)C(=O)N[C@@H](C)C(=O)N[C@@H](CC(C)C)C(=O)N[C@@H](CC(=O)O)C(=O)N[C@@H](CCCNC(=N)N)C(=O)N[C@H](C(=O)N[C@@H](Cc1c[nH]cn1)C(=O)N[C@@H](CCC(N)=O)C(=O)N[C@@H](CCC(=O)O)C(=O)N[C@@H](CCC(=O)O)C(=O)N[C@@H](Cc1ccccc1)C(=O)N[C@H](C(=O)N[C@@H](CCC(N)=O)C(=O)N[C@@H](Cc1c[nH]c2ccccc12)C(=O)N[C@@H](CC(C)C)C(=O)N[C@@H](CC(C)C)C(=O)N[C@@H](C)C(=O)NCC(=O)NCC(=O)N[C@@H](CSCCS(=O)(=O)CCN1CCN(CC(=O)O)CCN(CC(=O)O)CCN(CC(=O)O)CC1)C(N)=O)[C@@H](C)CC)[C@@H](C)CC` [SEQ ID NO: 5, Y-Aib-EGTFISDLSIALDRIHQEEFIQWLLAGGC(VS-DO3A)-NH2] (H-Y[Aib]EGTFISDLSIALDRIHQEEFIQWLLAGGC(DO3A(CH2CH2SO2CH2CH2))-NH2; N-terminus assumed), the EC50 [1] is reported as over 10 nM, the “potency (ability to activate the human GIP receptor) compared to native GIP or GIP(1-30)” value [5] is reported as “lower potency” and the EC50 [2] is reported as over 10 nM.

B1: SEQ ID NO: 4 (GIP(1-30) analog with K(DOTA(Ga)) at position 31) (peptide)
peptide: H-Y[Aib]EGTFISDLSIALDRIHQEEFIEWLLAGGK(DOTA)-NH2
modifications: also: Ga3+ complexed in DOTA on Lys31
notes: also called Ga-S02-GIP-T4
In the case of B1, the “EC50 hGIP R, cAMP formation (HTRF), 96-well format” value [6] is reported as 0.00109 nM, the “EC50 hGLP-1 R, cAMP formation (HTRF), 96-well format” value [7] is reported as over 10 nM and the “EC50 hGCGR, cAMP formation (HTRF), 96-well format” value [8] is reported as over 10 nM. The “fold improvement of binding affinity against native GIP” value [9] was about 12 fold, the IC50 [10] was 0.25 nM and the “fold improvement of binding affinity against GIP(1-30)” value [11] was about 5 fold.

B2: SEQ ID NO: 5 (GIP(1-30) analog with C(VS-DO3A) at position 31, unloaded) (peptide)
peptide: Y[Aib]EGTFISDLSIALDRIHQEEFIQWLLAGGC(DO3A(CH2CH2SO2CH2CH2))-NH2
notes: Printed: Y-Aib-EGTFISDLSIALDRIHQEEFIQWLLAGGC(VS-DO3A)-NH2
For B2, the “EC50 hGIP R, cAMP formation (HTRF), 384-well format” value [6] was 0.00022 nM, the “EC50 hGLP-1 R, cAMP formation (HTRF), 384-well format” value [7] was over 10 nM and the “EC50 hGCGR, cAMP formation (HTRF), 384-well format” value [8] was over 10 nM. The “fold improvement of binding affinity against native GIP” value [9] was about 12 fold, the IC50 [10] was 0.22 nM and the “fold improvement of binding affinity against GIP(1-30)” value [11] was about 5 fold.
